Measured values published in patent US12384789B2, “Compounds for treating Huntington's disease” (PTC Therapeutics, Inc., priority 2017, dated 2025).

Tested on: Endogenous Huntingtin Protein
Test: Endogenous Huntingtin Protein Assay (Meso Scale Discovery ELISA-based electrochemiluminescence)
Format: cell-based
Settings: MSD electrochemiluminescence, Table 1
Description: Compounds of Formula (I) were tested using the Meso Scale Discovery (MSD) Assay provided in International Application No. PCT/US2016/066042, filed on Dec. 11, 2016 and claiming priority to United States Provisional Application U.S. 62/265,652 filed on Dec. 10, 2015, the entire contents of which are incorporated herein by reference.
The Endogenous Huntingtin Protein assay used in Example 1 was developed using the ELISA-based MSD electrochemiluminescence assay platform.
Endogenous Huntingtin Protein Assay
Meso Scale Discovery (MSD) 96-well or 384-well plates were coated overnight at 4° C. with MW1 (expanded polyglutamine) or MAB2166 monoclonal antibody (for capture) at a concentration of 1 μg/mL in PBS (30 μL per well). Plates were then washed three times with 300 μL wash buffer (0.05% Tween-20 in PBS) and blocked (100 μL blocking buffer; 5% BSA in PBS) for 4-5 hours at room temperature with rotational shaking and then washed three times with wash buffer.
Samples (25 μL) were transferred to the antibody-coated MSD plate and incubated overnight at 4° C. After removal of the lysates, the plate was washed three times with wash buffer, and 25 μL of #5656S (Cell signaling; rabbit monoclonal) secondary antibody (diluted to 0.25 μg/mL in 0.05% Tween-20 in blocking buffer) was added to each well and incubated with shaking for 1 Hour at room temperature. Following incubation with the secondary antibody, the wells were rinsed with wash buffer after which 25 μL of goat anti-rabbit SULFO TAG secondary detection antibody (required aspect of the MSD system) (diluted to 0.25 μg/mL in 0.05% Tween-20 in blocking buffer) was added to each well and incubated with shaking for 1 hour at room temperature. After rinsing three times with wash buffer, 150 μL of read buffer T with surfactant (MSD) were added to each empty well, and the plate was imaged on a SI 6000 imager (MSD) according to manufacturers' instructions provided for 96- or 384-well plates.

| IC50 [nM] | SMILES |
| --- | --- |
| ≤ 100 | Cc1cn2cc(-c3cc(F)c4nc(C5CCNCC5)nnc4c3)cc(F)c2n1 [Compound 58, 5-fluoro-7-(8-fluoro-2-methylimidazo[1,2-a]pyridin-6-yl)-3-(piperidin-4-yl)-1,2,4-benzotriazine] |
| ≤ 100 | CCOc1cc(-c2cc(F)c3nc(C4CCNCC4)nnc3c2)nn2cc(C)nc12 [Compound 59, 7-(8-ethoxy-2-methylimidazo[1,2-b]pyridazin-6-yl)-5-fluoro-3-(piperidin-4-yl)-1,2,4-benzotriazine] |
| 100 to 500 | Cc1cn2cc(-c3cc(F)c4nc(C5CCNCC5)nnc4c3)cc(C)c2n1 [Compound 60, 7-(2,8-dimethylimidazo[1,2-a]pyridin-6-yl)-5-fluoro-3-(piperidin-4-yl)-1,2,4-benzotriazine] |
| 500 to 1000 | Cc1cn2cc(-c3cc(F)c4nc(C5CCNCC5)nnc4c3)cc(C(F)(F)F)c2n1 [Compound 61, 5-fluoro-7-[2-methyl-8-(trifluoromethyl)imidazo[1,2-a]pyridin-6-yl]-3-(piperidin-4-yl)-1,2,4-benzotriazine] |
| ≤ 100 | Cc1nc2c(C)cc(-c3cc(F)c4nc(C5CCNCC5)nnc4c3)cc2o1 [Compound 62, 7-(2,4-dimethyl-1,3-benzoxazol-6-yl)-5-fluoro-3-(piperidin-4-yl)-1,2,4-benzotriazine] |
| ≤ 100 | Cc1nc2c(C)cc(-c3cc(F)c4nc(C5CCNCC5)nnc4c3)cc2[nH]1 [Compound 63, 7-(2,4-dimethyl-1H-benzimidazol-6-yl)-5-fluoro-3-(piperidin-4-yl)-1,2,4-benzotriazine] |
| ≤ 100 | Cc1cn2cc(-c3cc(F)c4nc(C5CCNCC5)nnc4c3)cc2c(C)n1 [Compound 64, 7-(1,3-dimethylpyrrolo[1,2-a]pyrazin-7-yl)-5-fluoro-3-(piperidin-4-yl)-1,2,4-benzotriazine] |
| 100 to 500 | Cc1cc2cc(-c3cc(F)c4nc(C5CCNCC5)nnc4c3)cc(C)n2n1 [Compound 65, 7-(2,7-dimethylpyrazolo[1,5-a]pyridin-5-yl)-5-fluoro-3-(piperidin-4-yl)-1,2,4-benzotriazine] |
| ≤ 100 | Cc1cc(-c2cc(F)c3nc(C4CCNCC4)nnc3c2)nc2cn(C)nc12 [Compound 66, 7-(2,7-dimethyl-2H-pyrazolo[4,3-b]pyridin-5-yl)-5-fluoro-3-(piperidin-4-yl)-1,2,4-benzotriazine] |
| 100 to 500 | Cc1nc(-c2cc(F)c3nc(C4CCNCC4)nnc3c2)cc2cn(C)nc12 [Compound 67, 7-(2,7-dimethyl-2H-pyrazolo[3,4-c]pyridin-5-yl)-5-fluoro-3-(piperidin-4-yl)-1,2,4-benzotriazine] |
| ≤ 100 | Cc1nc2c(F)cc(-c3cc(F)c4nc(C5CCNCC5)nnc4c3)cc2o1 [Compound 68, 5-fluoro-7-(4-fluoro-2-methyl-1,3-benzoxazol-6-yl)-3-(piperidin-4-yl)-1,2,4-benzotriazine] |
| ≤ 100 | Cc1cn2nc(-c3cc(F)c4nc(C5CCN(C)CC5)nnc4c3)cc(C)c2n1 [Compound 69, 7-(2,8-dimethylimidazo[1,2-b]pyridazin-6-yl)-5-fluoro-3-(1-methylpiperidin-4-yl)-1,2,4-benzotriazine] |
| ≤ 100 | CCN1CCC(c2nnc3cc(-c4cc(C)c5nc(C)cn5n4)cc(F)c3n2)CC1 [Compound 70, 7-(2,8-dimethylimidazo[1,2-b]pyridazin-6-yl)-3-(1-ethylpiperidin-4-yl)-5-fluoro-1,2,4-benzotriazine] |

Further lines, the compound ahead of its results:

| SMILES | IC50 [nM] |
| --- | --- |
| Cn1cc2cc(-c3cc(F)c4nc(C5CCNCC5)ncc4c3)cc(F)c2n1 [Compound 36, 8-fluoro-6-(7-fluoro-2-methyl-2H-indazol-5-yl)-2-(piperidin-4-yl)quinazoline] | ≤ 100 |
| Cc1cn2nc(-c3cc(F)c4nc(C5CCNCC5)ncc4c3)cc(C)c2n1 [Compound 37, 6-(2,8-dimethylimidazo[1,2-b]pyridazin-6-yl)-8-fluoro-2-(piperidin-4-yl)quinazoline] | ≤ 100 |
| Cc1cc(-c2ccc3nc(C4CCNCC4)ncc3c2F)cc2cn(C)nc12 [Compound 38, 6-(2,7-dimethyl-2H-indazol-5-yl)-5-fluoro-2-(piperidin-4-yl)quinazoline] | 1000 to 3000 |
| Cc1cc(-c2cc3cnc(C4CCNCC4)nc3cc2F)cc2cn(C)nc12 [Compound 39, 6-(2,7-dimethyl-2H-indazol-5-yl)-7-fluoro-2-(piperidin-4-yl)quinazoline] | 1000 to 3000 |
| Cc1cn2cc(-c3nnc4cc(C5CCNCC5)cc(F)c4n3)cc(C)c2n1 [Compound 40, 3-(2,8-dimethylimidazo[1,2-a]pyridin-6-yl)-5-fluoro-7-(piperidin-4-yl)-1,2,4-benzotriazine] | 100 to 500 |
| Cc1cn2cc(-c3nnc4cc(C5CCNCC5)cc(F)c4n3)cc(F)c2n1 [Compound 41, 5-fluoro-3-(8-fluoro-2-methylimidazo[1,2-a]pyridin-6-yl)-7-(piperidin-4-yl)-1,2,4-benzotriazine] | 100 to 500 |
| Cc1cc(-c2cc(F)c3nc(N(C)C4CCNCC4)nnc3c2)cc2cn(C)nc12 [Compound 42, 7-(2,7-dimethyl-2H-indazol-5-yl)-5-fluoro-N-methyl-N-(piperidin-4-yl)-1,2,4-benzotriazin-3-amine] | 100 to 500 |
| Cc1cn2cc(-c3nnc4cc(C5CCNCC5)ccc4n3)cc(F)c2n1 [Compound 43, 3-(8-fluoro-2-methylimidazo[1,2-a]pyridin-6-yl)-7-(piperidin-4-yl)-1,2,4-benzotriazine] | ≤ 100 |
| Cc1cn2nc(-c3nnc4cc(C5CCNCC5)ccc4n3)cc(C)c2n1 [Compound 44, 3-(2,8-dimethylimidazo[1,2-b]pyridazin-6-yl)-7-(piperidin-4-yl)-1,2,4-benzotriazine] | 100 to 500 |
| Cc1cn2nc(-c3cc(F)c4nc(C5CCNCC5)ccc4c3)cc(C)c2n1 [Compound 45, 6-(2,8-dimethylimidazo[1,2-b]pyridazin-6-yl)-8-fluoro-2-(piperidin-4-yl)quinoline] | ≤ 100 |
| Cc1cn2nc(-c3cc(F)c4nc(C5CCNCC5)nnc4c3)cc(C)c2n1 [Compound 46, 7-(2,8-dimethylimidazo[1,2-b]pyridazin-6-yl)-5-fluoro-3-(piperidin-4-yl)-1,2,4-benzotriazine] | ≤ 100 |
| Cc1cn2nc(-c3cc(F)c4nc(C5CCN(C)CC5)ccc4c3)cc(C)c2n1 [Compound 47, 6-(2,8-dimethylimidazo[1,2-b]pyridazin-6-yl)-8-fluoro-2-(1-methylpiperidin-4-yl)quinoline] | ≤ 100 |
| CCN1CCC(c2ccc3cc(-c4cc(C)c5nc(C)cn5n4)cc(F)c3n2)CC1 [Compound 48, 6-(2,8-dimethylimidazo[1,2-b]pyridazin-6-yl)-2-(1-ethylpiperidin-4-yl)-8-fluoroquinoline] | ≤ 100 |
| COc1cc(-c2cc(F)c3nc(C4CCNCC4)ccc3c2)cc2cn(C)nc12 [Compound 49, 8-fluoro-6-(7-methoxy-2-methyl-2H-indazol-5-yl)-2-(piperidin-4-yl)quinoline] | ≤ 100 |
| Cc1cn2cc(-c3cc(F)c4nc(C5CCNCC5)ccc4c3)cc(F)c2n1 [Compound 50, 8-fluoro-6-(8-fluoro-2-methylimidazo[1,2-a]pyridin-6-yl)-2-(piperidin-4-yl)quinoline] | ≤ 100 |
| COc1cc(-c2cc(F)c3nc(C4CCNCC4)ccc3c2)nn2cc(C)nc12 [Compound 51, 8-fluoro-6-(8-methoxy-2-methylimidazo[1,2-b]pyridazin-6-yl)-2-(piperidin-4-yl)quinoline] | ≤ 100 |
| COc1cc(-c2nnc3cc(C4CCNCC4)ccc3n2)cc2cn(C)nc12 [Compound 52, 3-(7-methoxy-2-methyl-2H-indazol-5-yl)-7-(piperidin-4-yl)-1,2,4-benzotriazine] | ≤ 100 |
| COCCOc1cc(-c2cc(F)c3nc(C4CCNCC4)ccc3c2)nn2cc(C)nc12 [Compound 53, 8-fluoro-6-[8-(2-methoxyethoxy)-2-methylimidazo[1,2-b]pyridazin-6-yl]-2-(piperidin-4-yl)quinoline] | 100 to 500 |
| COCCNc1cc(-c2cc(F)c3nc(C4CCNCC4)ccc3c2)nn2cc(C)nc12 [Compound 54, 6-[8-fluoro-2-(piperidin-4-yl)quinolin-6-yl]-N-(2-methoxyethyl)-2-methylimidazo[1,2-b]pyridazin-8-amine] | 100 to 500 |
| Cc1cc(-c2cc(F)c3cc(C4=CCNCC4)nnc3c2)cc2cn(C)nc12 [Compound 55, 7-(2,7-dimethyl-2H-indazol-5-yl)-5-fluoro-3-(1,2,3,6-tetrahydropyridin-4-yl)cinnoline] | ≤ 100 |
| Cc1cn2cc(-c3nnc4cc(C5CC6CCC(C5)N6)ccc4n3)cc(F)c2n1 (centres unmarked) [Compound 56, 7-(8-azabicyclo[3.2.1]oct-3-yl)-3-(8-fluoro-2-methylimidazo[1,2-a]pyridin-6-yl)-1,2,4-benzotriazine] | ≤ 100 |
| Cc1cn2nc(-c3nnc4cc(C5CCNCC5)cc(F)c4n3)cc(C)c2n1 [Compound 57, 3-(2,8-dimethylimidazo[1,2-b]pyridazin-6-yl)-5-fluoro-7-(piperidin-4-yl)-1,2,4-benzotriazine] | ≤ 100 |
